Non-standard residues stand in square brackets, D forms with d. Residues, ends and D or L forms follow the SMILES beside them. No end group written: not given here. Hyp = O=C(O)[C@@H]1C[C@@H](O)CN1

Here are results for 21 molecules from patent US8280710B2, “Method for determining thermal stability of collagen or collagen-like peptide” (University of Medicine and Dentistry of New Jersey, priority 2005, dated 2012).

Data set [1] is described as follows: Method for predicting global Tm of collagen peptides from amino acid sequence. Conditions: observed minus predicted, peptides of Table 3. On the procedure:
The global thermal stability of homotrimeric triple helical peptides with length of at least 6 tripeptide units and, in most cases, containing 10 tripeptide units was determined as follows.
For the total number of triplets n in a given peptide, the base Tm^0(n) for (Pro-Hyp-Gly) or (Pro-Pro-Gly)n was calculated from the length dependence (Equation 1), including any effect of blocking groups;
The melting temperature value was decreased for every triplet in the sequence that was not Gly-Pro-Hyp, subtracting a value of ΔTm^GXY (Table 1). The N-terminal and C-terminal tripeptide units were excluded from the calculation due to the staggering of the chains and the disorder for the peptide ends (Bella et al. (1994) supra; Li, et al. (1993) Biochemistry 32:7377-7387; Kramer, et al. (2001) J. Mol. Biol. 301:1191-1205).
The resulting value for the peptide melting temperature was adjusted using the ΔTm^int values for interactions between neighboring tripeptides (Table 2).
The method was formulated as follows.
To extrapolate the dependence of the Tm of the host peptides on peptide length, the experimental values for (Pro-Hyp-Gly)n and (Pro-Pro-Gly)n versus n, where n is the number of tripeptide units, were fit to the exponential decay function
[formula] where Tm^0(n) is defined as the base thermal stability of the repeating polytripeptide standard, Tm^max is the maximum melting temperature, and the constant n0 represents the length of the repeating peptide with Tm=0.

For data set [2] the following is noted: for Tm^obs: peptide of Table 3, defined standard conditions; for experimentally observed Tm of Gly-Xaa1-Xaa2 tripeptide unit in a triple helix: host-guest peptide, (Gly-Pro-Hyp)8 host, c=1 mg/ml in phosphate-buffered saline, pH 7.0, heating rate 0.1° C./minute. As to the method:
The propensity measurements for all 20 amino acid residues in the Xaa1 position in a Gly-Xaa1-Hyp context and all 20 amino acid residues in the Xaa2 position in a Gly-Pro-Xaa2 context were determined by measuring thermal stability of host-guest peptides (Persikov, et al. (2000) supra).
The Tm values of all host-guest peptides were measured under a set of standard conditions, with c=1 mg/ml in phosphate-buffered saline, pH 7.0, and with a heating rate average of 0.1° C./minute (Persikov, et al. (2004) supra).

`CC(=O)NCC(=O)N1CCC[C@H]1C(=O)N1C[C@H](O)C[C@H]1C(=O)NCC(=O)N1CCC[C@H]1C(=O)N1C[C@H](O)C[C@H]1C(=O)NCC(=O)N[C@@H](CCCNC(=N)N)C(=O)N[C@@H](CCC(N)=O)C(=O)NCC(=O)N[C@@H](CCCCN)C(=O)N[C@@H](CCCNC(=N)N)C(=O)NCC(=O)N[C@@H](CCCCN)C(=O)N1C[C@H](O)C[C@H]1C(=O)NCC(=O)N1CCC[C@H]1C(=O)N1C[C@H](O)C[C@H]1C(=O)NCC(=O)N1CCC[C@H]1C(=O)N1C[C@H](O)C[C@H]1C(=O)NCC(=O)N1CCC[C@H]1C(=O)N1C[C@H](O)C[C@H]1C(=O)NCC(=O)NCC(N)=O` [AchE-HG-Alt, Ac-GPO-GPO-GRQ-GKR-GKO-GPO-GPO-GPO-GG-NH2] (Ac-GP[Hyp]GP[Hyp]GRQGKRGK[Hyp]GP[Hyp]GP[Hyp]GP[Hyp]GG-NH2): the ΔTm in data set [1] was −0.5 °C. Besides, the “Tm^obs” value in data set [2] amounted to 20.1 °C.

With `CC(=O)NCC(=O)N1CCC[C@H]1C(=O)N1C[C@H](O)C[C@H]1C(=O)NCC(=O)N1CCC[C@H]1C(=O)N1C[C@H](O)C[C@H]1C(=O)NCC(=O)N1CCC[C@H]1C(=O)N1C[C@H](O)C[C@H]1C(=O)NCC(=O)N1CCC[C@H]1C(=O)N1C[C@H](O)C[C@H]1C(=O)NCC(=O)N1CCC[C@H]1C(=O)N[C@@H](C)C(=O)NCC(=O)N1CCC[C@H]1C(=O)N[C@@H](C)C(=O)NCC(=O)N1CCC[C@H]1C(=O)N[C@H](C(=O)NCC(=O)N1CCC[C@H]1C(=O)N[C@@H](C)C(=O)NCC(=O)N[C@@H](C)C(=O)N[C@@H](CCCNC(=N)N)C(=O)NCC(=O)N1CCC[C@H]1C(=O)N[C@@H](C)C(=O)NCC(=O)N[C@H](C(N)=O)C(C)C)C(C)C` [T1-892r, Ac-(GPO)4-GPA-GPA-GPV-GPA-GAR-GPA-GV-NH2] (Ac-GP[Hyp]GP[Hyp]GP[Hyp]GP[Hyp]GPAGPAGPVGPAGARGPAGV-NH2), the ΔTm in data set [1] is −2.2 °C.

In the case of `CC(=O)NCC(=O)N[C@@H](C)C(=O)N[C@@H](CCCNC(=N)N)C(=O)NCC(=O)N1CCC[C@H]1C(=O)N[C@@H](C)C(=O)NCC(=O)N1CCC[C@H]1C(=O)N[C@@H](CCC(N)=O)C(=O)NCC(=O)N1CCC[C@H]1C(=O)N[C@@H](CCCNC(=N)N)C(=O)NCC(=O)N[C@@H](CC(=O)O)C(=O)N[C@@H](CCCCN)C(=O)NCC(=O)N[C@@H](CCC(=O)O)C(=O)N[C@H](C(=O)NCC(=O)N1CCC[C@H]1C(=O)N1C[C@H](O)C[C@H]1C(=O)NCC(=O)N1CCC[C@H]1C(=O)N1C[C@H](O)C[C@H]1C(=O)NCC(=O)N1CCC[C@H]1C(=O)N1C[C@H](O)C[C@H]1C(=O)NCC(=O)N1CCC[C@H]1C(=O)N1C[C@H](O)C[C@H]1C(=O)NCC(=O)N[C@H](C(N)=O)C(C)C)[C@@H](C)O` [T1-904, Ac-GAR-GPA-GPQ-GPR-GDK-GET-(GPO)4-GV-NH2] (Ac-GARGPAGPQGPRGDKGETGP[Hyp]GP[Hyp]GP[Hyp]GP[Hyp]GV-NH2), in data set [2], the “Tm^obs” value came out at 30.8 °C.

On to `CC[C@H](C)[C@H](NC(=O)CNC(=O)[C@H](CO)NC(=O)[C@@H]1CCCN1C(=O)CNC(=O)[C@@H]1C[C@@H](O)CN1C(=O)[C@@H]1CCCN1C(=O)CNC(=O)[C@@H](NC(=O)[C@H](CCCNC(=N)N)NC(=O)CNC(=O)[C@H](C)NC(=O)[C@H](C)NC(=O)CNC(=O)[C@@H]1C[C@@H](O)CN1C(=O)[C@H](Cc1ccccc1)NC(=O)CNC(C)=O)[C@@H](C)O)C(=O)N[C@@H](CO)C(=O)NCC(=O)N1CCC[C@H]1C(=O)N1C[C@H](O)C[C@H]1C(=O)NCC(=O)N1CCC[C@H]1C(=O)N1C[C@H](O)C[C@H]1C(=O)NCC(=O)N1CCC[C@H]1C(=O)N1C[C@H](O)C[C@H]1C(=O)NCC(=O)N1CCC[C@H]1C(=O)N1C[C@H](O)C[C@H]1C(=O)NCC(=O)N[C@H](C(N)=O)C(C)C` [T1A2-697, Ac-GFO-GAA-GRT-GPO-GPS-GIS-(GPO)4-GV-NH2] (Ac-GF[Hyp]GAAGRTGP[Hyp]GPSGISGP[Hyp]GP[Hyp]GP[Hyp]GP[Hyp]GV-NH2), for which, in data set [2], the “Tm^obs” value is under 4 °C.

`CC[C@H](C)[C@H](NC(=O)CNC(=O)[C@H](CC(C)C)NC(=O)[C@@H]1CCCN1C(=O)CNC(=O)[C@@H]1C[C@@H](O)CN1C(=O)[C@H](C)NC(=O)CNC(=O)[C@@H]1C[C@@H](O)CN1C(=O)[C@@H]1CCCN1C(=O)CNC(C)=O)C(=O)N[C@@H](C)C(=O)NCC(=O)N[C@H](C(=O)N[C@H](C(=O)NCC(=O)N[C@@H](C)C(=O)N[C@@H](CCCNC(=N)N)C(=O)NCC(=O)N[C@@H](CC(C)C)C(=O)N[C@@H](C)C(=O)NCC(=O)N1CCC[C@H]1C(=O)N1C[C@H](O)C[C@H]1C(=O)NCC(=O)N1CCC[C@H]1C(=O)N1C[C@H](O)C[C@H]1C(=O)NCC(=O)N1CCC[C@H]1C(=O)N1C[C@H](O)C[C@H]1C(=O)NCC(=O)N1CCC[C@H]1C(=O)N1C[C@H](O)C[C@H]1C(=O)NCC(=O)NCC(N)=O)[C@@H](C)O)[C@@H](C)CC` [T3-772, Ac-GPO-GAO-GPL-GIA-GIT-GAR-GLA-(GPO)4-GG-NH2] (Ac-GP[Hyp]GA[Hyp]GPLGIAGITGARGLAGP[Hyp]GP[Hyp]GP[Hyp]GP[Hyp]GG-NH2): in data set [2], the “Tm^obs” value is under 4 °C.

Turning to `CC(=O)NCC(=O)N1CCC[C@H]1C(=O)N[C@@H](CCCNC(=N)N)C(=O)NCC(=O)N[C@@H](CC(N)=O)C(=O)N[C@@H](CCCNC(=N)N)C(=O)NCC(=O)N[C@@H](CCC(=O)O)C(=O)N[C@@H](CCCNC(=N)N)C(=O)NCC(=O)N[C@@H](CO)C(=O)N[C@@H](CCC(=O)O)C(=O)NCC(=O)N[C@@H](CO)C(=O)N1C[C@H](O)C[C@H]1C(=O)NCC(=O)N[C@@H](Cc1c[nH]cn1)C(=O)N1C[C@H](O)C[C@H]1C(=O)NCC(=O)N[C@@H](CCC(N)=O)C(=O)N1C[C@H](O)C[C@H]1C(=O)NCC(=O)N1CCC[C@H]1C(=O)N1C[C@H](O)C[C@H]1C(=O)NCC(=O)N1CCC[C@H]1C(=O)N1C[C@H](O)C[C@H]1C(=O)NCC(=O)N[C@@H](C)C(=O)N1C[C@H](O)C[C@H]1C(=O)NCC(=O)N[C@H](C(N)=O)C(C)C` [T3-997, Ac-GPR-GNR-GER-GSE-GSO-GHO-GQO-GPO-GPO-GAO-GV-NH2] (Ac-GPRGNRGERGSEGS[Hyp]GH[Hyp]GQ[Hyp]GP[Hyp]GP[Hyp]GA[Hyp]GV-NH2), the “Tm^obs” value in data set [2] is under 4 °C.

As to `CC(=O)NCC(=O)N[C@@H](CCC(=O)O)C(=O)N[C@@H](CCCNC(=N)N)C(=O)NCC(=O)N[C@@H](CCC(=O)O)C(=O)N[C@@H](CCCNC(=N)N)C(=O)NCC(=O)N[C@@H](CCC(=O)O)C(=O)N[C@@H](CCCCN)C(=O)NCC(=O)N[C@@H](CCC(=O)O)C(=O)N[C@@H](CCCNC(=N)N)C(=O)NCC(=O)N[C@@H](CCC(=O)O)C(=O)N[C@@H](CCC(N)=O)C(=O)NCC(=O)N[C@@H](CCCNC(=N)N)C(=O)N[C@@H](CC(=O)O)C(=O)NCC(=O)N1CCC[C@H]1C(=O)N1C[C@H](O)C[C@H]1C(=O)NCC(=O)N1CCC[C@H]1C(=O)N1C[C@H](O)C[C@H]1C(=O)NCC(=O)N1CCC[C@H]1C(=O)N1C[C@H](O)C[C@H]1C(=O)NCC(=O)N1CCC[C@H]1C(=O)N1C[C@H](O)C[C@H]1C(=O)NCC(=O)N[C@H](C(N)=O)C(C)C` [T7-2058, Ac-GER-GER-GEK-GER-GEQ-GRD-(GPO)4-GV-NH2] (Ac-GERGERGEKGERGEQGRDGP[Hyp]GP[Hyp]GP[Hyp]GP[Hyp]GV-NH2), in data set [2], the “Tm^obs” value is 23.2 °C.

Gly-Ala-[Hyp]: the “experimentally observed Tm of Gly-Xaa1-Xaa2 tripeptide unit in a triple helix” value (shortened to “experimentally observed Tm”) in data set [2] came to 41.7 °C.

As for Gly-Gly-Ala, the “experimentally observed Tm” value in data set [2] was found to be 26.0 °C.

Consider Gly-Gly-Phe, for which, in data set [2], the “experimentally observed Tm” value was 19.7 °C.

For Gly-Pro-Ala, in data set [2], the “decrease in stability relative to Gly-Pro-Hyp” value turned out to be 6.4 °C and the “experimentally observed Tm” value turned out to be 40.9 °C.

Turning to Gly-Pro-Arg, in data set [2], the “decrease in stability relative to Gly-Pro-Hyp” value was about 0 °C and the “experimentally observed Tm” value was 47.2 °C.

For Gly-Pro-Gln, the “experimentally observed Tm” value in data set [2] is 41.3 °C.

Turning to Gly-Pro-Glu, in data set [2], the “experimentally observed Tm” value was 39.7 °C.

In the case of Gly-Pro-Gly, the “experimentally observed Tm” value in data set [2] was 32.9 °C.

As to Gly-Pro-Lys, the “experimentally observed Tm” value in data set [2] stood at 36.8 °C.

With Gly-Pro-Pro, in data set [2], the “experimentally observed Tm” value came to 45.5 °C.

In the case of Gly-Pro-Ser, in data set [2], the “experimentally observed Tm” value is 35.0 °C.

Regarding Gly-Pro-Val, the “experimentally observed Tm” value in data set [2] turned out to be 40.0 °C.

With Gly-Pro-[Hyp], the “decrease in stability relative to Gly-Pro-Hyp” value in data set [2] was determined as 21 °C.

For “MBL: MBL peptide(s) of Table 3 containing Gly-Lys-Asp-Gly-Arg-Asp-Gly-Thr-Lys-Gly-Glu-Lys-Gly-Glu-Hyp; not said whether MBL 42-61 or 45-61 (GKDGRDGTKGEKGEP)”, the ΔTm result in data set [1] is listed as “higher than observed”.
